# Measurements as given in US20110229534A1, “Non-Irritating Oral Care Formulations” (The Trustees of Columbia University In The City Of New York, priority 2006, published 2011).
# Read-outs that look alike come from different tables or passages of the source.
# Experiments:
# [1] = cited from earlier work
# [2] = test system: Streptococcus mutants; conditions: for Growth: CFU/ml: subcultured on TSA, 24 hours
# Method: A culture of Streptococcus mutants (causative bacteria for dental plaque) was grown in brain/heart infusion (BHI). Tubes containing 5 ml of BHI were inoculated with 0.1 ml of 10^5 CFU bacteria/ml and incubated anaerobically at 37° C. After 24 hours the turbidity was measured; the tubes were subcultured on TSA and incubated for 24 hours and colony counts were measured.
# [3] = oral administration; cited from earlier work
# [4] = oral rinse containing ketorolac; small number of patients; cited from earlier work
# [5] = test system: GCF-IL-1 beta; conditions: used as an oral rinse; cited from earlier work
compound,measurement,setting,value
zinc glycerate,water solubility (in words),[1],moderately water soluble
Zinc salicylate,anti-Streptococcus activity (conclusion),[2],exhibit anti-Streptococcus activity
same,Growth: CFU/ml,[2]; 25 ug/ml,>10^8 CFU/ml
same,Growth: CFU/ml,[2]; 50 ug/ml,>10^6 CFU/ml
same,Growth: CFU/ml,[2]; 100 ug/ml,10 CFU/ml
same,Growth: CFU/ml,[2]; 200 ug/ml,0 CFU/ml
zinc picolinate,water solubility (in words),[1],moderately water soluble
O=C(c1ccccc1)c1ccc2n1CCC2C(=O)O (stereo not shown) [ketorolac],gastric mucosal side effect,[3],gastric mucosal ulceration
same,oral mucosal side effect,[4],ulceration in the oral mucosa was observed
same,effect on GCF-IL-1 beta in the oral cavity,[5],reduce GCF-IL-1 beta
